Experimental data taken from ChEMBL document CHEMBL5046276 (J Med Chem, 2022).
The source made the active and inactive calls. The rule behind the calls is not given here.

Experiments:
Plasmodium falciparum [1] = assay: (§1) Antimalarial activity against wild-type Plasmodium falcipuram 3D7 infected in human RBC assessed as reduction in parasitemia in blood smear by measuring parasite survival ratio at ring stage at upto 700 nM incubated for 6 hrs followed by compound washout and replacement with fresh medium without compounds and measured after 66 hrs by ring stage survival assay; type: functional; settings: dose nM <=700, time 6.0 hrs
[2] = AUC (0 to last) in BALB/c mouse at 5 mg/kg, ip measured after upto 24 hrs by LC-MS/MS analysis; type: ADME, organism-based; parameters: route intraperitoneal, dose 5 mg/kg, time <=24; settings: in vivo
Plasmodium falciparum [3] = assay: Antimalarial activity against early stage (II) Plasmodium falciparum NF54 gametocytes transfected with p230p-Luc assessed as reduction in gametocyte viability incubated for 48 hrs by luciferase reporter gene based bioluminescence assay; type: functional, organism-based; settings: NF54, 48 h
Plasmodium falciparum [4] = assay: Antimalarial activity against blood stage asynchronous Plasmodium falcipuram 3D7 assessed as parasite growth inhibition by measuring parasitemia at 10 to 100 nM incubated for 12 to 24 hrs by flow cytometry; type: functional, organism-based; settings: dose 10-100 nM, time 12-24 hrs
Plasmodium falciparum [5] = assay: Antimalarial activity against synchronized Plasmodium falcipuram 3D7 infected in human RBC assessed as fold reduction in reinvasion of ring stage parasites at 40 nM incubated for 12 hrs followed by compound washout and replacement with fresh medium without compounds and measured at 50 hrs post infection by flow cytometry; type: functional
[6] = Selectivity index, ratio of IC50 for cytotoxicity against human HepG2 cells to IC50 for antimalarial activity against asexual blood stage wild-type Plasmodium falciparum 3D7; type: toxicity, cell-based; settings: read-out: Ratio IC50
[7] = Toxicity in BALB/c mouse infected with blood stage Plasmodium yoelii assessed as animal death at 30 to 90 mg/kg, ip qd for 5 days and measured on day 60; type: organism-based; settings: in vivo, 1440 h, dose 30-90 mg/kg, time 60 day
Plasmodium yoelii [8] = assay: Antimalarial activity against blood stage Plasmodium yoelii infected in BALB/c mouse assessed as inhibition of parasitemia at 60 mg/kg, ip qd for 5 days and measured after 30 days; type: functional, organism-based; settings: time 30.0 day
Plasmodium falciparum [9] = assay: Antimalarial activity against asexual blood stage chloroquine-resistant Plasmodium falcipuram GB4 assessed as parasite growth inhibition incubated for 72 hrs by SYBR Green I staining based fluorescence analysis; type: functional, organism-based; settings: GB4, 72 h
Histone deacetylase 2 = Histone deacetylase 2 (Homo sapiens, UniProt Q92769); assay: Potency index, ratio of test compound IC50 to Quisinostat IC50 for inhibition of recombinant human full length C-terminal His tagged HDAC2 (1 to 488 residues) expressed in baculovirus-infected Sf9 insect cells using Ac-peptide as substrate incubated for 4 hrs
Plasmodium falciparum [10] = assay: Antimalarial activity against asexual blood stage quinine-resistant Plasmodium falcipuram C2A assessed as parasite growth inhibition incubated for 72 hrs by SYBR Green I staining based fluorescence analysis; type: functional, organism-based
Plasmodium falciparum [11] = assay: as §1, with “ART-resistant” for “wild-type”, “6218 harbouring C580Y mutant” for “3D7”; type: functional; settings: dose nM <=700, time 6.0 hrs
[12] = Tmax in BALB/c mouse at 5 mg/kg, ip measured after upto 24 hrs by LC-MS/MS analysis; type: ADME, organism-based; settings: in vivo
Plasmodium falciparum [13] = assay: Inhibition of Plasmodium falcipuram recombinant HDAC1 using HDAC-Glo I/II as substrate at 50 to 800 nM preincubated for 90 mins by luminescence based microplate reader analysis; settings: dose 50-800 nM
Plasmodium yoelii [14] = assay: Antimalarial activity against blood stage Plasmodium yoelii infected in BALB/c mouse assessed as parasite killing by measuring parasitemia at 30 to 90 mg/kg, ip qd for 5 days and measured on day 60; type: functional, organism-based; settings: dose 30-90 mg/kg, time 60.0 day
Plasmodium falciparum [15] = assay: Antimalarial activity against asexual blood stage chloroquine-resistant Plasmodium falciparum Dd2 assessed as parasite growth inhibition incubated for 72 hrs by SYBR Green I staining based fluorescence analysis; type: functional, organism-based; settings: Dd2, 72 h
Plasmodium falciparum [16] = assay: In vivo inhibition of C-terminal TY1 fused HDAC1 in Plasmodium falcipuram 3D7 assessed as inhibition of parasite growth by measuring downregulation of RBC invasion-related genes expression level by RNA-seq analysis; type: functional, organism-based
[17] = Metabolic stability in mouse liver microsomes assessed as half life at […] incubated for 45 mins in presence of NADPH by LC/MS analysis; type: ADME, Microsome; settings: liver microsomes
Plasmodium falciparum [18] = assay: In vivo inhibition of C-terminal glmS fused HDAC2 in Plasmodium falcipuram 3D7 assessed as inhibition of parasite growth incubated for 4 hrs followed by compound washout and replacement with fresh medium with compounds measured after 68 hrs by SYBR Green I staining based fluorescence analysis; type: functional, organism-based
[19] = biological target: T1, Protein deacetylase HDAC6 (Homo sapiens, UniProt Q9UBN7); assay: Inhibition of recombinant human full length N-terminal GST tagged HDAC6 (1 to 1215 residues) expressed in baculovirus-infected Sf9 cells using Ac-peptide as substrate incubated for 4 hrs
T1 sequence (Q9UBN7 whole entry): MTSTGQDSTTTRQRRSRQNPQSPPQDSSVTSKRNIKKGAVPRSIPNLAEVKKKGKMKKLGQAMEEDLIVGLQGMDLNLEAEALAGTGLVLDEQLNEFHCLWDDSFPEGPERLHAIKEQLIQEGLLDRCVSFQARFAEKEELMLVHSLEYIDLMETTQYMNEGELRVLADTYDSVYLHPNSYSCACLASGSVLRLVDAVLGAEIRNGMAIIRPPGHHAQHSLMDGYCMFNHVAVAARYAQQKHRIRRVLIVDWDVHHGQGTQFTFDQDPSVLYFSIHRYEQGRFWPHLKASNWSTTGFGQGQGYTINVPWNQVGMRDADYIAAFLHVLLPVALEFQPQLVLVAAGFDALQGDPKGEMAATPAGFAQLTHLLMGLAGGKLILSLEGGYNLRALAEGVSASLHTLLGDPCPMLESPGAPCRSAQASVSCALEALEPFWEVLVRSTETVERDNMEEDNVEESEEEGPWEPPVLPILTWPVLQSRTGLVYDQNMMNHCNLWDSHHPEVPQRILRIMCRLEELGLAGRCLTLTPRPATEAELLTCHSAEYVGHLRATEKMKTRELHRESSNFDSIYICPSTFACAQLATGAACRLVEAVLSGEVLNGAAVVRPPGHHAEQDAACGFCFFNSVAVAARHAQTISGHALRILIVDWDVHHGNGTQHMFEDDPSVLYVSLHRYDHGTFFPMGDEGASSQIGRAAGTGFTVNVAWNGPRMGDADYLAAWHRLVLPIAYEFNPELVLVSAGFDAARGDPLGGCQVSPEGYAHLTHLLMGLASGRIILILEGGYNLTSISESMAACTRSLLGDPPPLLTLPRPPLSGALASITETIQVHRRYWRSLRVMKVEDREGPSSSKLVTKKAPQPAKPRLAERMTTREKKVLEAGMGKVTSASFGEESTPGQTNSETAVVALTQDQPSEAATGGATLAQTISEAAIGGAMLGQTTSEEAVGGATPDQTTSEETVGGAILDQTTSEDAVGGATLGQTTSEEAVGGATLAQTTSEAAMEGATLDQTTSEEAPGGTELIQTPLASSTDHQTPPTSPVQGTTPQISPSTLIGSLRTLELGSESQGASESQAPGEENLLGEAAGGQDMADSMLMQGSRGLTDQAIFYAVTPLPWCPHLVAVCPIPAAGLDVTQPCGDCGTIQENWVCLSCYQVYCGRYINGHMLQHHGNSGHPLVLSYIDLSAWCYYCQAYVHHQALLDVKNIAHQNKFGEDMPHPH

Sequence of Histone deacetylase 2 (Q92769 whole entry, the tested form may be a part): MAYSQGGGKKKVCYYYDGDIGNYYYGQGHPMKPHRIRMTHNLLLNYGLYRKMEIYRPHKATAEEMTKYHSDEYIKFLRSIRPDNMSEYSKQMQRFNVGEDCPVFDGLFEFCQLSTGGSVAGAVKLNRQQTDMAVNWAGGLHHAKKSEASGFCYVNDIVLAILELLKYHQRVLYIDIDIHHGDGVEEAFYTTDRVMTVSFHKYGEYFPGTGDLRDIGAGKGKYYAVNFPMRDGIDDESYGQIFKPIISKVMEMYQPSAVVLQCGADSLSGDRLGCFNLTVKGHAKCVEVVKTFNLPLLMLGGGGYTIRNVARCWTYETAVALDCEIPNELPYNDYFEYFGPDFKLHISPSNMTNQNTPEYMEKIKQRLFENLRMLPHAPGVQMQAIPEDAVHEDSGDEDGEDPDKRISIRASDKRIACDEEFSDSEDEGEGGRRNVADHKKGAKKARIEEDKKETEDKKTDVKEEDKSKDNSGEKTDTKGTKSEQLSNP

SMILES: Cl.Cn1cc(CN2CC3(CCN(c4ncc(C(=O)NO)cn4)C3)C2)c2ccc(C#N)cc21
- Activity (Plasmodium falciparum [1]): Active
- AUC(0-t) at 24 h [2]: 638 ng·h/mL
- IC50 (Plasmodium falciparum [3]): 15.4 nM
- Activity (Plasmodium falciparum [4]): Active
- fold change (FC) (Plasmodium falciparum [5]): 10
- selectivity ratio [6]: 810
- Activity [7]: Non-Toxic
- Activity (Plasmodium yoelii [8]): Active
- IC50 (Plasmodium falciparum [9]): 3.06 nM
- Ratio IC50 (Histone deacetylase 2): 3
- IC50 (Plasmodium falciparum [10]): 2.18 nM
- Activity (Plasmodium falciparum [11]): Active
- Tmax [12]: 15 min
- inhibition (Plasmodium falciparum [13]): Active
- Activity (Plasmodium yoelii [14]): Active
- IC50 (Plasmodium falciparum [15]): 1.61 nM
- inhibition (Plasmodium falciparum [16]): Active
- half-life [17]: 80.2 min
- inhibition (Plasmodium falciparum [18]): Active
- IC50 [19]: 85.5 nM
